Measured values from the supplement of paper PMC9103864.

Legend:
[1] = tested on: BMSC (primary human bone marrow mesenchymal stromal cells); assay: drug sensitivity score (DSS); higher = more sensitive
[2] = tested on: BMSC (primary human bone marrow mesenchymal stromal cells); assay: absolute EC50 for viability; higher = less sensitive

Row | SMILES | drug sensitivity score [1] | absolute EC50 for viability [2] [nM]
1 | COCCNCc1ccc(-c2cc3nccc(Oc4ccc(NC(=S)NC(=O)Cc5ccc(F)cc5)cc4F)c3s2)nc1 [Glesatinib] | 5.1 | > 2500
2 | C[C@H](Nc1ncnc2[nH]cnc12)c1cc2ccc(F)cc2nc1-c1ccccn1 [AMG319] | 0.1 | > 1000
3 | CS(=O)(=O)CCNCc1ccc(-c2ccc3ncnc(Nc4ccc(OCc5cccc(F)c5)c(Cl)c4)c3c2)o1 [Lapatinib] | 0.1 | > 1000
4 | S=c1[nH]cnc2nc[nH]c12 [Mercaptopurine] | 11.1 | > 10000
5 | Nc1nc(Cl)nc2c1ncn2[C@H]1C[C@H](O)[C@@H](CO)O1 [Cladribine] | 2.3 | > 1000
6 | Cc1ccc(C(=O)N(CCCN)[C@@H](c2oc3cc(Cl)ccc3c(=O)c2Cc2ccccc2)C(C)C)cc1 | 0 | > 100
7 | CO[C@H]1C(=O)[C@]2(C)[C@@H](OC)C[C@H]3OC[C@@]3(OC(C)=O)[C@H]2[C@H](OC(=O)c2ccccc2)[C@]2(O)C[C@H](OC(=O)[C@H](O)[C@@H](NC(=O)OC(C)(C)C)c3ccccc3)C(C)=C1C2(C)C [Cabazitaxel] | 7.2 | > 1000
8 | Cc1ccc(NC(=O)c2ccc(CN3CC[C@H](N(C)C)C3)c(C(F)(F)F)c2)cc1Nc1nccc(-c2cncnc2)n1 [Bafetinib] | 1.9 | > 1000
9 | NCCNc1ccc(NCCN)c2c1C(=O)c1ccncc1C2=O [Pixantrone] | 0 | > 10000
10 | Cc1nc(NC(=O)N2CCC[C@H]2C(N)=O)sc1-c1ccnc(C(C)(C)C(F)(F)F)c1 [Alpelisib] | 3.4 | > 2500
11 | COc1cccc(-c2ccc(NC(=O)C3=C(C(=O)O)CCC3)c(F)c2)c1 [Vidofludimus] | 0 | > 10000
12 | O=C(/C=C/c1cccnc1)NCCCCC1CCN(C(=O)c2ccccc2)CC1 [Daporinad] | 0.2 | > 1000
13 | CC(C)[C@H]1C(=O)N[C@@H](CCCNC(=N)N)C(=O)NCC(=O)N[C@@H](CC(=O)O)C(=O)N[C@H](Cc2ccccc2)C(=O)N1C [Cilengitide] | 1.4 | > 10000
14 | CC(=O)O[C@]1(C(C)=O)CC[C@H]2[C@@H]3C=C(C)C4=CC(=O)CC[C@]4(C)[C@H]3CC[C@@]21C [Megestrol acetate] | 0 | > 10000
15 | C=CCn1c(=O)c2cnc(Nc3ccc(N4CCN(C)CC4)cc3)nc2n1-c1cccc(C(C)(C)O)n1 [AZD1775] | 4.8 | > 10000
16 | CCCCNc1ncc(C(=O)NCc2ccc(-n3ccnc3)cc2)c(NC2CCC(O)CC2)n1 (configuration not stated) [UNC2881] | 0.1 | > 2500
17 | COc1cc([C@@H]2c3cc4c(cc3[C@@H](O[C@@H]3O[C@@H]5CO[C@@H](c6cccs6)O[C@H]5[C@H](O)[C@H]3O)[C@H]3COC(=O)[C@H]23)OCO4)cc(OC)c1O [Teniposide] | 0 | > 10000
18 | C[C@@H]1COC(Nc2ccc3ncnc(Nc4ccc(OCc5nccs5)c(Cl)c4)c3c2)=N1 [Varlitinib] | 0.4 | > 10000
19 | Cc1ncc(Cl)cc1NCc1ccc(C(=O)N[C@@H](CC2CCCC2)C(=O)NC2CC2)s1 | 0 | > 5000

Row | SMILES | drug sensitivity score [1] | absolute EC50 for viability [2] [nM]
20 | CCN1CCN(Cc2ccc(Nc3ncc(F)c(-c4cc(F)c5nc(C)n(C(C)C)c5c4)n3)nc2)CC1 [Abemaciclib] | 0 | > 2500
21 | CCNc1nc(Nc2cc(F)c(C(=O)N3CCOCC3)cc2OC)ncc1C(F)(F)F [GNE-7915] | 0 | > 1000
22 | FC(F)(F)c1ccc(/C=C/c2nc(COc3ccc(CCCCn4ccnn4)cc3)co2)cc1 [Mubritinib] | 0.4 | > 1000
23 | Nc1cc(F)ccc1NC(=O)/C=C/c1cnn(C/C=C/c2ccccc2)c1 [RGFP966] | 0.6 | > 10000
24 | COc1cc(NS(C)(=O)=O)ccc1Nc1c2ccccc2nc2ccccc12 [Amsacrine] | 2.8 | > 10000
25 | CCc1cc2c(cc1N1CCC(N3CCOCC3)CC1)C(C)(C)c1[nH]c3cc(C#N)ccc3c1C2=O [Alectinib] | 0 | > 1000
26 | Cc1ccc(-c2cc(C(F)(F)F)nn2-c2ccc(S(N)(=O)=O)cc2)cc1 [Celecoxib] | 0 | > 10000
27 | Nc1nc2[nH]cc(CCc3ccc(C(=O)N[C@@H](CCC(=O)O)C(=O)O)cc3)c2c(=O)[nH]1 [Pemetrexed] | 0.7 | > 10000
28 | CC(C)(C)NC(=O)[C@H]1CC[C@H]2[C@@H]3CC[C@H]4NC(=O)C=C[C@]4(C)[C@H]3CC[C@]12C [Finasteride] | 0 | > 10000
29 | CO[C@@]12[C@H](COC(N)=O)C3=C(C(=O)C(C)=C(N)C3=O)N1C[C@@H]1N[C@@H]12 [Mitomycin] | 0 | > 10000
30 | CO[C@H]1C[C@@H]2CC[C@@H](C)[C@@](O)(O2)C(=O)C(=O)N2CCCC[C@H]2C(=O)O[C@H]([C@H](C)C[C@@H]2CC[C@@H](O)[C@H](OC)C2)CC(=O)[C@H](C)/C=C(\C)[C@@H](O)[C@@H](OC)C(=O)[C@H](C)C[C@H](C)/C=C/C=C/C=C/1C [Sirolimus] | 4.2 | > 100
31 | NC(=S)N/N=C/c1ncccc1N [Triapine] | 0 | > 10000
32 | Cn1cnc2c(F)c(Nc3ccc(Br)cc3Cl)c(C(=O)NOCCO)cc21 [Selumetinib] | 4.9 | > 10000
33 | COc1cc(OC)cc(N(CCNC(C)C)c2ccc3ncc(-c4cnn(C)c4)nc3c2)c1 [Erdafitinib] | 2.2 | > 1000
34 | CCc1c2c(nc3ccc(O)cc13)-c1cc3c(c(=O)n1C2)COC(=O)[C@]3(O)CC [SN-38] | 10 | 1520
35 | N[C@@H]1CCCN(c2c(/C=C3\SC(=O)NC3=O)cccc2-c2ccccc2)C1 [AZD1208] | 0.5 | > 10000
36 | Nc1cccc2c1CN(C1CCC(=O)NC1=O)C2=O (configuration not stated) [Lenalidomide] | 0 | > 100000
37 | CCCCCCCCCCCCCCCCCCOP(=O)([O-])OC1CC[N+](C)(C)CC1 [Perifosine] | 0 | > 2500
38 | COc1cccc2c1C(=O)c1c(O)c3c(c(O)c1C2=O)C[C@@](O)(C(=O)CO)C[C@@H]3O[C@H]1C[C@H](N)[C@@H](O)[C@H](C)O1 [Epirubicin] | 6.4 | 249

Row | SMILES | drug sensitivity score [1] | absolute EC50 for viability [2] [nM]
39 | CNC(=O)c1cccc2cc(Oc3ccnc4cc(OCC5(N)CC5)c(OC)cc34)ccc12 [Lucitanib] | 9 | > 10000
40 | O=C(NOC[C@H](O)CO)c1ccc(F)c(F)c1Nc1ccc(I)cc1F [Mirdametinib] | 2.1 | > 1000
41 | OC[C@H]1O[C@@H](n2cnc3c2N=CNC[C@H]3O)C[C@@H]1O [Pentostatin] | 0.4 | > 10000
42 | N#Cc1ccc(C(c2ccc(C#N)cc2)n2cncn2)cc1 [Letrozole] | 0 | > 10000
43 | Cc1cc(Nc2cc(N3CCN(C)CC3)nc(/C=C/c3ccccc3)n2)n[nH]1 [ENMD-2076] | 11.5 | 897
44 | CN[C@@H](C)C(=O)N[C@H]1CN(C(=O)CC(C)C)CC[C@H]2CC[C@@H](C(=O)NC(c3ccccc3)c3ccccc3)N2C1=O [AT-406] | 0 | > 10000
45 | CN1CCc2c(c3ccccc3n2Cc2ccc(C(=O)NO)cc2)C1 [Tubastatin A] | 0 | 9930
46 | Cc1cc(Nc2cc(N3CCN(C)CC3)nc(Sc3ccc(NC(=O)C4CC4)cc3)n2)n[nH]1 [Tozasertib] | 4.9 | 4450
47 | CCCc1cc(C)[nH]c(=O)c1CNC(=O)c1cc(-c2ccnc(N3CCN(C)CC3)c2)cc2c1cnn2C(C)C [GSK343] | 0 | > 1000
48 | O=C(Nc1c[nH]nc1-c1nc2ccc(CN3CCOCC3)cc2[nH]1)NC1CC1 [AT9283] | 6 | 254
49 | CCC(C)n1ncn(-c2ccc(N3CCN(c4ccc(OCC5COC(Cn6cncn6)(c6ccc(Cl)cc6Cl)O5)cc4)CC3)cc2)c1=O (configuration not stated) [Itraconazole] | 1.3 | > 5000
50 | CC1(COc2ccc3c(c2)ncn3-c2ccc3cccc(N4CCC(N)CC4)c3n2)COC1 [Crenolanib] | 8.5 | 1840
51 | O=C(O)CC[C@H]1CC[C@@](c2cc(F)ccc2F)(S(=O)(=O)c2ccc(Cl)cc2)CC1 [MK-0752] | 0 | > 1000
52 | Cn1cc(C[C@@H](N)C(=O)O)c2ccccc21 [1-methyl-D-tryptophan] | 0 | > 5000
53 | Cc1[nH]nc(C(F)(F)F)c1Cc1sc2c(c1C(=O)N1C[C@](C)(O)CO1)c(=O)n(C)c(=O)n2C(C)C [AZD3965] | 0 | > 1000
54 | CN(C)CCCOc1ccc(-c2ccc3ncc4c(c3c2)n(C2CCOCC2)c(=O)n4C)cn1 [AZD0156] | 1.9 | > 1000
55 | C[C@@H](Oc1cc(-n2cnc3ccc(CN4CCN(C)CC4)cc32)sc1C(N)=O)c1ccccc1C(F)(F)F | 8 | 1890
56 | NC(=O)Nc1cc(-c2cccc(F)c2)sc1C(=O)N[C@H]1CCCNC1 [AZD7762] | 7.2 | > 1000
